The target in assay [1] is T1, P-glycoprotein 1 (P-gp, hMDR1) (Homo sapiens, UniProt P08183).
T1 construct: gene ABCB1
Description: vanadate-sensitive ATPase activation in P-gp membrane vesicles (PREDEASY kit); supported by Rh123 competition in MDR cells.

For assay [2], the target named is T1, P-glycoprotein 1 (P-gp, hMDR1). Description: biochemical.

As a reminder, the Kd is the equilibrium constant for the complex coming apart. A lower Kd goes with higher affinity.

T1 sequence (P08183 whole entry): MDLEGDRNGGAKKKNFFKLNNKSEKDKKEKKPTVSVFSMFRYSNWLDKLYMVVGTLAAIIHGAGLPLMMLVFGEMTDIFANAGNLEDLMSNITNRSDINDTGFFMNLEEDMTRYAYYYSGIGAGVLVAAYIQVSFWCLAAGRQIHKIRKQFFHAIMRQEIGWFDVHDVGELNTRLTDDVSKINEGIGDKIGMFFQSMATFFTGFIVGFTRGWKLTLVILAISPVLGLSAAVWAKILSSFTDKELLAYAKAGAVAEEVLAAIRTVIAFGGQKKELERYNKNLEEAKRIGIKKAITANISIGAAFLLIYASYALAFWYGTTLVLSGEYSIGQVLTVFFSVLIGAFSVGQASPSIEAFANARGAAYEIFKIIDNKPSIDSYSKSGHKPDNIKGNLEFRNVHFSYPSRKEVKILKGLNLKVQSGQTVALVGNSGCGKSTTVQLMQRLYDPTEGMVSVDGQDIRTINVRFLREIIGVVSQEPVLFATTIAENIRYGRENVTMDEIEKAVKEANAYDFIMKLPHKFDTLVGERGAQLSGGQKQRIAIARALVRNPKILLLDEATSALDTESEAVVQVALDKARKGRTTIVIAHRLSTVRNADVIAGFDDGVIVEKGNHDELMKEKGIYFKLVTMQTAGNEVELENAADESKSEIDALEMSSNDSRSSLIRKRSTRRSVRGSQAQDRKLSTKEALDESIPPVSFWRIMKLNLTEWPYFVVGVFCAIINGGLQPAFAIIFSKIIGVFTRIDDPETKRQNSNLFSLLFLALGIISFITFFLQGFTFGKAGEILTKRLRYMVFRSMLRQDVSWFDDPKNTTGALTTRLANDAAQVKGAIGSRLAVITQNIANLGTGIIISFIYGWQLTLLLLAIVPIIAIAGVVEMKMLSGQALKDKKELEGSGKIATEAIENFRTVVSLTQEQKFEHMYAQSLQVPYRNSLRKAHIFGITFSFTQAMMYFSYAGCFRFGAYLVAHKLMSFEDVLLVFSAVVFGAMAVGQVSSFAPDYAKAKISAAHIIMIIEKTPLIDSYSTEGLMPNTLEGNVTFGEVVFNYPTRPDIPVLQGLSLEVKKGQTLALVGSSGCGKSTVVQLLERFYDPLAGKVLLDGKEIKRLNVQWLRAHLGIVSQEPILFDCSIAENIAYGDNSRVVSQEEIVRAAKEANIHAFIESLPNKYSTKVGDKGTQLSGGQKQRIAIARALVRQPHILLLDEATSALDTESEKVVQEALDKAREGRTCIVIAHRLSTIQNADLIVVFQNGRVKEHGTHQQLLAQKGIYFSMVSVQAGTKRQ

Regarding `CC(C)Cn1cnc2c(N)nc3ccccc3c21` [IMQ, Imiquimod], in assay [1], binding was characterised by a dissociation constant (Kd) of 7.66 µM.

Turning to `CCOCc1nc2c(N)nc3ccccc3c2n1CC(C)(C)O` [RSQ, Resiquimod], in assay [2], the Kd was found to be 24.4 µM.

Source of the values: paper PMC8705394, “Acquired Drug Resistance Enhances Imidazoquinoline Efflux by P-Glycoprotein” (Pharmaceuticals, 2021).
